Results on three compounds are retold here after patent US20070276032A1, “Use of 8-Prenylnaringenin for Hormone Replacement Therapy” (priority 2003, published 2007).

Assay [1] relates to ovariectomized rats. Put plainly: Bone mineral density of proximal tibia, estradiol in ovariectomized rats (Example 2). The settings on record: OVX rats; for Total bone density / Trabecular density: proximal tibia, s.c. 5 days a week, 4 weeks. The format is in vivo, Sprague-Dawley rats. The protocol: Fifty-six female Sprague-Dawley rats, 12-14 weeks old, were used altogether. Forty-nine animals were randomized into seven groups. Group 8 (seven animals) administered with the third vehicle, benzyl alcohol/sesame oil, was added to the study thirteen days later. Seven groups were ovariectomized (OVX) and one group was sham-operated (SHAM). Animals were treated subcutaneously once a day, five days a week (Monday-Friday) as follows. Groups 1 (the SHAM group) and 2 (the OVX group) were given the vehicle benzylbenzoate/ricinus oil (0.5 ml/kg, B/R). […] Treatments started on the day following surgical operation and continued for 4 weeks. At the end of the study, ex vivo BMD of proximal tibia was measured and serum estradiol was determined. In addition, uterus was weighed. Bone mineral density measurement was carried out by pQCT (XCT-960A, Stratec, Germany). The bone specimens were thawed before measurement. Six 1 mm-thick sections of the proximal tibia (2 mm below the epiphyseal growth plate) were scanned at 0.5 mm intervals using a voxel size of 0.148 mm. […] After bone densitometry, the specimens were wrapped back to saline saturated gauzes and stored at −20° C.

Assay [2] is described as follows: Body weight, estradiol in ovariectomized rats (Example 2). Format: in vivo, Sprague-Dawley rats. The settings on record: OVX rats, s.c. once a day, 5 days a week, 4 weeks. The procedure: (§1) Fifty-six female Sprague-Dawley rats, 12-14 weeks old, were used altogether. Forty-nine animals were randomized into seven groups. Group 8 (seven animals) administered with the third vehicle, benzyl alcohol/sesame oil, was added to the study thirteen days later. Seven groups were ovariectomized (OVX) and one group was sham-operated (SHAM). Animals were treated subcutaneously once a day, five days a week (Monday-Friday) as follows. Groups 1 (the SHAM group) and 2 (the OVX group) were given the vehicle benzylbenzoate/ricinus oil (0.5 ml/kg, B/R). […] Treatments started on the day following surgical operation and continued for 4 weeks. At the end of the study, ex vivo BMD of proximal tibia was measured and serum estradiol was determined. In addition, uterus was weighed.

Assay [3] has as its system ovariectomized rats. In words: Relative uterine weight, estradiol in ovariectomized rats (Example 2). The format is in vivo, Sprague-Dawley rats. The settings on record: OVX rats; for Relative uterine weight: s.c. 5 days a week, 4 weeks. The procedure: as §1, with “weighed. Relative uterine weight was calculated as percentage of body weight” for “weighed.”
The test system of another assay is ERE-Luc. In words: Estrogenic activity in the estrogen reporter mouse ERE-Luc model, luciferase activity in organs (Example 5). Particulars: male ERE-Luc mice, six hours after the injection; for Luciferase activity, Prostate: controls 0.5; for Luciferase activity, Bone: controls 2.8; for Luciferase activity, Brain: controls 6.5; for Luciferase activity, Liver: controls 7.6. The format is in vivo, mice. The protocol:
In order to avoid experimental noise male animals were used.
Fourtyfive heterozygous male ERE-Luc mice of two months of age were fed with soy-free diet for two weeks before assigning them to each experimental group then all the mice were injected intraperitoneally (i.p.) with 250 μl of an oily solution containing the following compounds: • 1. Experimental group 1: vehicle • 2. Experimental group 2: 17β-estradiol at 1.5 μg/kg • 3. Experimental group 3: 2S(−)-8-PN at 30 mg/kg • 4. […] Experimental group 5: genistein at 30 mg/kg.
The treatment was carried out in experimental groups of three mice each and repeated three times (therefore numbers reflect the average of […] determinations on a total of 9 animals).
Six hours after the injection, mice were sacrificed by cervical dislocation and organs were dissected and frozen on dry ice. The following organs were analyzed for lucifererase activity by enzymatic assay: prostate, liver, bone, brain.
Data represent means ±standard deviation of N=9 animals per group.
Analysis of variance (ANOVA) for overall comparison was followed by Tukey test for paired comparisons. All statistical procedures were carried out with Systat and SAS (*P<0.05; **P<0.01).

Assay [4] relates to ovariectomized rats. In words: Trabecular density of proximal tibia, 8-PN racemic, 2S(−) 8-PN and estradiol hemihydrate in ovariectomized rats (Example 4). The format is in vivo, Sprague-Dawley rats. The settings on record: OVX rats, s.c. 28 days. The protocol:
(§2) The aim of the study was to directly compare the effects of Prenylnaringenin (racemate) and 2S(−) 8-Prenylnaringenin to the effects of estradiol hemihydrate on bone mineral density and uterine weight on 3-month-old ovariectomized rats using identical formulations. In addition, the effects of estradiolhemihydrate in two vehicles (oily, aqueous) were examined for influence of formulations. The substances were administered subcutaneously(s.c.) seven days a week beginning the day after ovariectomy. At the end of the study, uterine weight and bone mineral density (BMD) of tibia were measured.
(§3) Forty-one female Sprague-Dawley rats, 12-14 weeks of age were randomized into six groups, 6-8 animals in each. Five groups were ovariectomized (OVX) and one group was sham-operated (SHAM). Treatments started on the day following operation and continued for 28 days. The animals were treated s.c. once a day seven times a week as follows. Group 1 (SHAM vehicle group) and group 2 (OVX vehicle group) were given the vehicle 30% hydroxypropyl-β-cyclodextrin (HP-β-CD). Groups 3 and 4 were administered 4 μg/kg/d of estradiol hemihydrate in vehicle benzyl benzoate/ricinus oil (B/R) and in vehicle HP-β-CD, respectively. Groups 5 and 6 were given 20 mg/kg/d of 2S(−)8-Prenylnaringenin and racemic 8-Prenylnaringenin, respectively, both in vehicle HP-β-CD. At the end of the study, left tibiae were excised for the ex vivo BMD […] were taken from all dosing solutions on the first and last day of use.
(§4) Vehicle 1 (used in the groups 1 and 2): 30% hydroxypropyl-β-cyclodextrin and 0.3% NaCl (w/v), 5% ethanol (v/v) in Aqua sterilisata, pH 7.4.
(§5) Vehicle 2 (used when preparing dosing solutions of the groups 4, 5 and 6): 30% hydroxypropyl-β-cyclodextrin and 0.3% NaCl (w/v) in Aqua sterilisata, pH 7.4.
(§6) Vehicle 3 (used when preparing a dosing solution of the group 3): benzyl benzoate/ricinus oil (B/R) 1+4, v/v.

Assay [5] can be described thus: Body weight, 8-PN racemic, 2S(−) 8-PN and estradiol hemihydrate in ovariectomized rats (Example 4). The format is in vivo, Sprague-Dawley rats. Particulars: OVX rats, s.c. once a day, 28 days. The procedure:
as §2, §3, §4, §5, §6

Assay [6] relates to ovariectomized rats. In words: Relative uterus weight, 8-PN racemic, 2S(−) 8-PN and estradiol hemihydrate in ovariectomized rats (Example 4). The format is in vivo, Sprague-Dawley rats. Particulars: OVX rats, s.c. 28 days, calculated as percentage of body weight. The procedure: as §2, §3, §4, §5, §6
The mark [7] stands for this setting: 4.0 μpg/kg/d s.c. five times a week for four weeks.
The mark [8] stands for this setting: 4 μg/kg/d in benzyl benzoate/ricinus oil (B/R).

Turning to `C[C@]12CC[C@@H]3c4ccc(O)cc4CC[C@H]3[C@@H]1CC[C@@H]2O` [17β-estradiol], the “effect on total and trabecular bone mineral density of proximal tibia” value with ovariectomized rats [1] (setting [7]) was “prevented the OVX-induced decrease in total and trabecular bone mineral density of proximal tibia”. Further, the Total bone density was 511 (17) mg/cm^3 in the assay with ovariectomized rats [1] (0.2 μg/kg/d in B/R); 506 (8) mg/cm^3 in the assay with ovariectomized rats [1] (0.4 μg/kg/d in B/R); 577 (24) mg/cm^3 in the assay on ovariectomized rats [1] (1.2 μg/kg/d in B/R); 577 (22) mg/cm^3 in the assay with ovariectomized rats [1] (1.2 μg/kg/d in E/A); 637 (13) mg/cm^3 in the assay with ovariectomized rats [1] (4.0 μg/kg/d in B/R). The Trabecular density in the assay on ovariectomized rats [1] (0.2 μg/kg/d in B/R) is 271 (17) mg/cm^3; with ovariectomized rats [1] (0.4 μg/kg/d in B/R), 260 (13) mg/cm^3; in the assay on ovariectomized rats [1] (1.2 μg/kg/d in B/R), 376 (31) mg/cm^3; in the assay on ovariectomized rats [1] (1.2 μg/kg/d in E/A), 366 (24) mg/cm^3; in the assay on ovariectomized rats [1] (4.0 μg/kg/d in B/R), 435 (21) mg/cm^3. The Final body weight in assay [2] (0.2 μg/kg/d in vehicle B/R) is recorded as 304 (6) g; in assay [2] (0.4 μg/kg/d in vehicle B/R), 312 (6) g; in assay [2] (1.2 μg/kg/d in vehicle B/R), 303 (6) g; in assay [2] (1.2 μg/kg/d in vehicle E/A), 287 (8) g; in assay [2] (4.0 μg/kg/d in vehicle B/R), 284 (7) g. Besides, the “The change in body weight” value is 51 (3) g in assay [2] (0.2 μg/kg/d in vehicle B/R); 53 (5) g in assay [2] (0.4 μg/kg/d in vehicle B/R); 48 (4) g in assay [2] (1.2 μg/kg/d in vehicle B/R); 33 (3) g in assay [2] (1.2 μg/kg/d in vehicle E/A); 31 (3) g in assay [2] (4.0 μg/kg/d in vehicle B/R). Besides, in the assay on ovariectomized rats [3] (setting [7]), the “effect on relative uterine weight” value was “prevented the decrease in relative uterine weight and maintained it on the level of the SHAM vehicle group”. Also, the Relative uterine weight in the assay with ovariectomized rats [3] (0.2 μg/kg/d in B/R) is given as 0.045 (0.003) % of body weight; in the assay on ovariectomized rats [3] (0.4 μg/kg/d in B/R), 0.054 (0.003) % of body weight; in the assay with ovariectomized rats [3] (1.2 μg/kg/d in B/R) it was 0.110 (0.008) % of body weight; with ovariectomized rats [3] (1.2 μg/kg/d in E/A), 0.114 (0.005) % of body weight; in the assay with ovariectomized rats [3] (4.0 μg/kg/d in B/R), 0.159 (0.006) % of body weight. Further, the “Luciferase activity, Prostate” value in the assay with ERE-Luc (i.p. 1.5 μg/kg) stood at 0.5 arbitrary units. Besides, the “Luciferase activity, Bone” value in the assay with ERE-Luc (i.p. 1.5 μg/kg) was determined as 2.6 arbitrary units. Moreover, the “Luciferase activity, Brain” value in the assay on ERE-Luc (i.p. 1.5 μg/kg) was 6.6 arbitrary units. Further, in the assay with ERE-Luc (i.p. 1.5 μg/kg), the “Luciferase activity, Liver” value is recorded as 11.0 ** arbitrary units.

For the compound `O=c1c(-c2ccc(O)cc2)coc2cc(O)cc(O)c12` [Genistein, genistein], in the assay with ERE-Luc (i.p. 30 mg/kg), the “Luciferase activity, Prostate” value is listed as 0.7 ** arbitrary units; the “Luciferase activity, Bone” value is given as 3.8 * arbitrary units; the “Luciferase activity, Brain” value is 8.7 arbitrary units; the “Luciferase activity, Liver” value was 12.2 ** arbitrary units.

For the compound `C[C@]12CC[C@@H]3c4ccc(O)cc4CC[C@H]3[C@@H]1CC[C@@H]2O` [estradiol hemihydrate, 17β-estradiol hemihydrate, reference compound], in the assay on ovariectomized rats [1] (1.2 μg/kg/d in BA/S), the Total bone density is on record as 596 (18) mg/cm^3 and the Trabecular density is reported as 386 (21) mg/cm^3. Moreover, in assay [2] (1.2 μg/kg/d in vehicle BA/S), the Final body weight is 288 (11) g and the “The change in body weight” value is given as 28 (1) g. Moreover, in the assay on ovariectomized rats [4] (4 μg/kg/d in B/R), the “Trabecular density at left proximal tibia, Mean” value is reported as 542 mg/cm3 and the “Trabecular density at left proximal tibia, Median” value is recorded as 577 mg/cm3. In the assay with ovariectomized rats [4] (4 μg/kg/d in HP-β-CD), the “Trabecular density at left proximal tibia, Mean” value is recorded as 406 mg/cm3 and the “Trabecular density at left proximal tibia, Median” value was found to be 383 mg/cm3. In assay [5] (4 μg/kg/d in HP-β-CD), the “Body weight at The end (bw4b)” value is reported as 285(9) g and the “The change in Body weight (bw4b-bw0)” value was 10(4) g. In addition, in assay [5] (setting [8]), the “Body weight at The end (bw4b)” value was 291(9) g and the “The change in Body weight (bw4b-bw0)” value is on record as 17(4) g. In the assay with ovariectomized rats [6] (4 μg/kg/d in B/R), the “Relative uterus weight, Mean” value was 0.175 and the “Relative uterus weight, Median” value was 0.178. Further, in the assay on ovariectomized rats [6] (4 μg/kg/d in HP-β-CD), the “Relative uterus weight, Mean” value is 0.131 and the “Relative uterus weight, Median” value is given as 0.120. Further, the Relative uterine weight in the assay on ovariectomized rats [3] (1.2 μg/kg/d in BA/S) is 0.131 (0.008) % of body weight.
